In patent publication US9828360B2 (Array BioPharma Inc., priority 2012, dated 2017):

How the values were obtained:
Assay in all cases: KinaseProfiler off-target kinase profiling
Type in all cases: biochemical
Conditions in all cases: 10 μM, ATP near Km
AMPK (A1/B1/G1) = target: T1, AMPK (A1/B1/G1) (Homo sapiens, UniProt Q13131)
T1 construct: purchased Millipore, Inc. (KinaseProfiler service)
Procedure, shortened: (§1)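 The compound was screened once at 10 μM against the full kinase panel, in duplicate. ATP was held near the Km for every kinase, and the averaged duplicate data are given as percent of control.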

ARK5 = target: T2, ARK5 (Homo sapiens, UniProt O60285)
T2 construct: purchased Millipore, Inc. (KinaseProfiler service)
Procedure, shortened: as §1

Bmx = target: T3, Bmx (Homo sapiens, UniProt P51813)
T3 construct: purchased Millipore, Inc. (KinaseProfiler service)
Procedure, shortened: as §1

CAMK1d = target: T4, CAMK1d (Homo sapiens, UniProt Q8IU85)
T4 construct: purchased Millipore, Inc. (KinaseProfiler service)
Procedure, shortened: as §1

CAMK4 = target: T5, CAMK4 (Homo sapiens, UniProt Q16566)
T5 construct: purchased Millipore, Inc. (KinaseProfiler service)
T5 sequence (Q16566 whole entry): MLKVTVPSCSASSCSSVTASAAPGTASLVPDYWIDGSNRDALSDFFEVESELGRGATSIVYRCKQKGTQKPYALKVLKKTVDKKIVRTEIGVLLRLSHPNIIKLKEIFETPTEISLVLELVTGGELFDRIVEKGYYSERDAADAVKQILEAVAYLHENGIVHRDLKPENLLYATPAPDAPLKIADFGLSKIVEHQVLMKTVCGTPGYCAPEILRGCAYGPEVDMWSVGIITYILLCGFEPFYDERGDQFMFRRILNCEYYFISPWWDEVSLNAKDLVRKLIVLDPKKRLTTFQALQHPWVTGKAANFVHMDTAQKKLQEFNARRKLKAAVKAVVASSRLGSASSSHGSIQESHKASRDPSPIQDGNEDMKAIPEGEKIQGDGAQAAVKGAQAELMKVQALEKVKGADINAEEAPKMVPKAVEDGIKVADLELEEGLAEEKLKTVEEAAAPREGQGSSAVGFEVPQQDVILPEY
Procedure, shortened: as §1

CDK5/p25 = target: T6, CDK5/p25 (Homo sapiens, UniProt Q00535)
T6 construct: purchased Millipore, Inc. (KinaseProfiler service)
Procedure, shortened: as §1

CK1delta = target: T7, CK1delta (Homo sapiens, UniProt P48730)
T7 construct: purchased Millipore, Inc. (KinaseProfiler service)
T7 sequence (P48730 whole entry): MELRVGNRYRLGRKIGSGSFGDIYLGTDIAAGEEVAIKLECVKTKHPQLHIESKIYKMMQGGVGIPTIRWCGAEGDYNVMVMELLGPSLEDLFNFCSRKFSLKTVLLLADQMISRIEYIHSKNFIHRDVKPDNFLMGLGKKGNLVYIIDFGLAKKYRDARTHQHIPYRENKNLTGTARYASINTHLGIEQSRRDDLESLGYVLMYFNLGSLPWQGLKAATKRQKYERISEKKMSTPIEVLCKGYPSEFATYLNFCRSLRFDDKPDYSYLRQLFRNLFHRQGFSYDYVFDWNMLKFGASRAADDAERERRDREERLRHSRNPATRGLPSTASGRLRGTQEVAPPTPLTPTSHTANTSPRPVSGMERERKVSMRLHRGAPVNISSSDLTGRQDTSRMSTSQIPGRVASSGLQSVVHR
Procedure, shortened: as §1

DAPK2 = target: T8, DAPK2 (Homo sapiens, UniProt Q9UIK4)
T8 construct: purchased Millipore, Inc. (KinaseProfiler service)
Procedure, shortened: as §1

DCAMKL2 = target: T9, DCAMKL2 (Homo sapiens, UniProt Q8N568)
T9 construct: purchased Millipore, Inc. (KinaseProfiler service)
Procedure, shortened: as §1

DDR2 = target: T10, DDR2 (Homo sapiens, UniProt Q16832)
T10 construct: purchased Millipore, Inc. (KinaseProfiler service)
T10 sequence (Q16832 22-855): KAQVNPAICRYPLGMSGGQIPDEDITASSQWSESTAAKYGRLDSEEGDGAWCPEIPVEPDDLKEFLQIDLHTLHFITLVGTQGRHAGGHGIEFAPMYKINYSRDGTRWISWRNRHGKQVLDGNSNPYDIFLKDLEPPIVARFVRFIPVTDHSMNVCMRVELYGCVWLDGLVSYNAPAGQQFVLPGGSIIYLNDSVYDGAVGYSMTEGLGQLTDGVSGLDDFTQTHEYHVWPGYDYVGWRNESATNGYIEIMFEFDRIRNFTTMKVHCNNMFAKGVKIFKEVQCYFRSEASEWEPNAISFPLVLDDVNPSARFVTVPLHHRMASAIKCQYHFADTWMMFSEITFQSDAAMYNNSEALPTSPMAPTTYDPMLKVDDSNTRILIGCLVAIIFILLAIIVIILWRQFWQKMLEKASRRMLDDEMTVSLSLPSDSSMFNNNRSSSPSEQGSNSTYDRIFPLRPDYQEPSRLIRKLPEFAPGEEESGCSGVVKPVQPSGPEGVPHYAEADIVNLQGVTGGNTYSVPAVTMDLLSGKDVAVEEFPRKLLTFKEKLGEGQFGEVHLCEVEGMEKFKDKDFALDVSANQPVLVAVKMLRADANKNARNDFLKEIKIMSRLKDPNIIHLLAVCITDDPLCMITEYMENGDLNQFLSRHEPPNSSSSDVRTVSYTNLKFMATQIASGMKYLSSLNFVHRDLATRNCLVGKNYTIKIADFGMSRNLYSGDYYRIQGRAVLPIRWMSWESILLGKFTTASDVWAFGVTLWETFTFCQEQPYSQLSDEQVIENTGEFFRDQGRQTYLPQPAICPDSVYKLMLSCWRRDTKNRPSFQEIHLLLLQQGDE
Procedure, shortened: as §1

ErbB4 = target: T11, ErbB4 (Homo sapiens, UniProt Q15303)
T11 construct: purchased Millipore, Inc. (KinaseProfiler service)
T11 sequence (Q15303 26-1308): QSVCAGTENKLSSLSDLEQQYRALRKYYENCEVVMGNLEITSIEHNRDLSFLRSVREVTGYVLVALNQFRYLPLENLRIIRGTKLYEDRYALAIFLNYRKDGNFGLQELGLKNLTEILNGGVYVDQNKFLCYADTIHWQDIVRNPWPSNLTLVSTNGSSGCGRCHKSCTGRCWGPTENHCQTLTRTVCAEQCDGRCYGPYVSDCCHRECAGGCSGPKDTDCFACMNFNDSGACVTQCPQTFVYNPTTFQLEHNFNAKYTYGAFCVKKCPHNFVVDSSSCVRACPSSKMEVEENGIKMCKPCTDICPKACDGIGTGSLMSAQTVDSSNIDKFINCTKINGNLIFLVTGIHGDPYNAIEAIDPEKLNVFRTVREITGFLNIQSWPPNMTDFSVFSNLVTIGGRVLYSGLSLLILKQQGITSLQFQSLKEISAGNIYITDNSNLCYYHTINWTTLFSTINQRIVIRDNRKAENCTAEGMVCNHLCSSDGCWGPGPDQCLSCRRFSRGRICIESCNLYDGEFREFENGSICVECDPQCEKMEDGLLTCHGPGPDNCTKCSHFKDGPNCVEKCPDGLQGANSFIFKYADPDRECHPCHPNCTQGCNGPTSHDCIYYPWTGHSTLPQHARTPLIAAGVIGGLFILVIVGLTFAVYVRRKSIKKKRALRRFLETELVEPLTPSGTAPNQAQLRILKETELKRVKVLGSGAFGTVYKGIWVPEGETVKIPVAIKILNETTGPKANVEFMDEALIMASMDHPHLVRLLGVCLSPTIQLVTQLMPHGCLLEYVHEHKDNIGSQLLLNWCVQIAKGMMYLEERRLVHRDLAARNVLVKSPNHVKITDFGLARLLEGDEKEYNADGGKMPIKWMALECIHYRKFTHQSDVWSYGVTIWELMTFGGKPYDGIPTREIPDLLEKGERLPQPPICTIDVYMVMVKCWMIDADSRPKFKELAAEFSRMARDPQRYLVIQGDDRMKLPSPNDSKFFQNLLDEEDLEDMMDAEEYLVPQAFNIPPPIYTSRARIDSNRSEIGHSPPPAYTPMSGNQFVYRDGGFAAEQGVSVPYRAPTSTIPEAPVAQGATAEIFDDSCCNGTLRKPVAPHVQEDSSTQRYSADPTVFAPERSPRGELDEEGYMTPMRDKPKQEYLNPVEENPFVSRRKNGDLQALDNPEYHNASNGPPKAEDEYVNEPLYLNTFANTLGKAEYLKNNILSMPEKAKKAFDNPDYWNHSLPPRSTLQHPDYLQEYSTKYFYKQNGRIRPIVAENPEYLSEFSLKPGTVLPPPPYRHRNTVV
Procedure, shortened: as §1

FGFR3 = target: T12, FGFR3 (Homo sapiens, UniProt P22607)
T12 construct: purchased Millipore, Inc. (KinaseProfiler service)
Procedure, shortened: as §1

FGFR4 = target: T13, FGFR4 (Homo sapiens, UniProt P22455)
T13 construct: purchased Millipore, Inc. (KinaseProfiler service)
Procedure, shortened: as §1

Flt3 = target: T14, Flt3 (Homo sapiens, UniProt P36888)
T14 construct: purchased Millipore, Inc. (KinaseProfiler service)
Procedure, shortened: as §1

GRK6 = target: T15, GRK6 (Homo sapiens, UniProt P43250)
T15 construct: purchased Millipore, Inc. (KinaseProfiler service)
Procedure, shortened: as §1

HIPK3 = target: T16, HIPK3 (Homo sapiens, UniProt Q9H422)
T16 construct: purchased Millipore, Inc. (KinaseProfiler service)
Procedure, shortened: as §1

IKKbeta = target: T17, IKKbeta (Homo sapiens, UniProt O14920)
T17 construct: purchased Millipore, Inc. (KinaseProfiler service)
Procedure, shortened: as §1

JNK1alpha1 = target: T18, JNK1alpha1 (Homo sapiens, UniProt P45983)
T18 construct: purchased Millipore, Inc. (KinaseProfiler service)
T18 sequence (P45983 1-384 isoform P45983-2): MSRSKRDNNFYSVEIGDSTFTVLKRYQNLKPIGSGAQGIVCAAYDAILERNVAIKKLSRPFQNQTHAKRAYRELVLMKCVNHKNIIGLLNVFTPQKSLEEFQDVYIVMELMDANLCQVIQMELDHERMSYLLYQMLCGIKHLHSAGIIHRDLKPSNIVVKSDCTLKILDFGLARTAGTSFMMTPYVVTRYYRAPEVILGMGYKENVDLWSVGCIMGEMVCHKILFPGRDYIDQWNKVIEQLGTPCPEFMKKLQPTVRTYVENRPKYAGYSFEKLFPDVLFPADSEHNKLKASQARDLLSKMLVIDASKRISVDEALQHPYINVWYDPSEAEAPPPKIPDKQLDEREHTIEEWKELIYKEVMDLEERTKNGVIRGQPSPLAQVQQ
Procedure, shortened: as §1

LKB1 = target: T19, LKB1 (Homo sapiens, UniProt Q15831)
T19 construct: purchased Millipore, Inc. (KinaseProfiler service)
Procedure, shortened: as §1

MKK6 = target: T20, MKK6 (Homo sapiens, UniProt P52564)
T20 construct: purchased Millipore, Inc. (KinaseProfiler service)
Procedure, shortened: as §1

MSSK1 = target: T21, MSSK1 (Homo sapiens, UniProt Q9UPE1)
T21 construct: purchased Millipore, Inc. (KinaseProfiler service)
T21 sequence (Q9UPE1 whole entry): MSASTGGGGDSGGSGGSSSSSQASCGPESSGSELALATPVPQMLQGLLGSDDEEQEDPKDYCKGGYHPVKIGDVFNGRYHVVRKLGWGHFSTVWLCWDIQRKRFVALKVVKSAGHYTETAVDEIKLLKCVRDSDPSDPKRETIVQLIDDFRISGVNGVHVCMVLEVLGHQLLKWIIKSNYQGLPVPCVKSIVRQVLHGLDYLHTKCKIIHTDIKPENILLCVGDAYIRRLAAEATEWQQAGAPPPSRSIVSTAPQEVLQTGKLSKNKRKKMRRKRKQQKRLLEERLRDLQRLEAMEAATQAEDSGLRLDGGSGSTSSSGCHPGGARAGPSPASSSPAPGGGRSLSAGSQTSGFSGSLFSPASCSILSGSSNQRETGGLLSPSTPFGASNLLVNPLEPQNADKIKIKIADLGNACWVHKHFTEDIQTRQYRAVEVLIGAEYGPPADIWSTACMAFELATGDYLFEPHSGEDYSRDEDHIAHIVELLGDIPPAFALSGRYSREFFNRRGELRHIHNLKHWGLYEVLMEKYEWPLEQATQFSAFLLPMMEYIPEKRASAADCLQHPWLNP
Procedure, shortened: as §1

Met = target: T22, Met (Homo sapiens, UniProt P08581)
T22 construct: purchased Millipore, Inc. (KinaseProfiler service)
Procedure, shortened: as §1

NEK2 = target: T23, NEK2 (Homo sapiens, UniProt P51955)
T23 construct: purchased Millipore, Inc. (KinaseProfiler service)
Procedure, shortened: as §1

NEK3 = target: T24, NEK3 (Homo sapiens, UniProt P51956)
T24 construct: purchased Millipore, Inc. (KinaseProfiler service)
Procedure, shortened: as §1

NEK6 = target: T25, NEK6 (Homo sapiens, UniProt Q9HC98)
T25 construct: purchased Millipore, Inc. (KinaseProfiler service)
Procedure, shortened: as §1

PASK = target: T26, PASK (Homo sapiens, UniProt Q96RG2)
T26 construct: purchased Millipore, Inc. (KinaseProfiler service)
Procedure, shortened: as §1

PTK5 = target: T27, PTK5 (Homo sapiens, UniProt P42685)
T27 construct: purchased Millipore, Inc. (KinaseProfiler service)
Procedure, shortened: as §1

ROCK-I = target: T28, ROCK-I (Homo sapiens, UniProt Q13464)
T28 construct: purchased Millipore, Inc. (KinaseProfiler service)
Procedure, shortened: as §1

SGK1 = target: T29, SGK1 (Homo sapiens, UniProt O00141, S422D)
T29 construct: purchased Millipore, Inc. (KinaseProfiler service)
Procedure, shortened: as §1

TAO3 = target: T30, TAO3 (Homo sapiens, UniProt Q9H2K8)
T30 construct: purchased Millipore, Inc. (KinaseProfiler service)
T30 sequence (Q9H2K8 whole entry): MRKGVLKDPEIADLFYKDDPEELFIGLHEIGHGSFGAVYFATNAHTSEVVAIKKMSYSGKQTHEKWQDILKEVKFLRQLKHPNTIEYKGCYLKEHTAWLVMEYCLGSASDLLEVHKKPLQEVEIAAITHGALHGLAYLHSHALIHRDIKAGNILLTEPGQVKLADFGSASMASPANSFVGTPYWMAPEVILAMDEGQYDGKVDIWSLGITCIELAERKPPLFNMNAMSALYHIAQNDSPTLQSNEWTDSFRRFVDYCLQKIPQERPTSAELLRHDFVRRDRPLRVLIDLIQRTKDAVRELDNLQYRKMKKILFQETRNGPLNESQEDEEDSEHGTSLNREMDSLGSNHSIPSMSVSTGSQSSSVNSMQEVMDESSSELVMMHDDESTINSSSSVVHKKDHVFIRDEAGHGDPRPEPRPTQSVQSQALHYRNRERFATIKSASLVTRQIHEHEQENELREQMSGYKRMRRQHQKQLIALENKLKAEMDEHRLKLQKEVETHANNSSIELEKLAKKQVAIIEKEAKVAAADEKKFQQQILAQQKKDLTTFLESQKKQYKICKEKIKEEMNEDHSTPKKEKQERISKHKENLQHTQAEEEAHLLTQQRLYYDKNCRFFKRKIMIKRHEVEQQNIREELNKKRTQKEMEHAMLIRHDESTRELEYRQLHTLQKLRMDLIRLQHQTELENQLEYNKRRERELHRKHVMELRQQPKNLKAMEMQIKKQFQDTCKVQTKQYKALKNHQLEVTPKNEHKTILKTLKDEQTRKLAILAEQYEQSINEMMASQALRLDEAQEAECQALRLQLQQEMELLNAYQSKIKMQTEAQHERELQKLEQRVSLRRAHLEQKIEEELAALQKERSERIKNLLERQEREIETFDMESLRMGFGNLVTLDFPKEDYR
Procedure, shortened: as §1

TEC Activated = target: T31, TEC Activated (Homo sapiens, UniProt P42680)
T31 construct: purchased Millipore, Inc. (KinaseProfiler service)
Procedure, shortened: as §1

eEF-2K = target: T32, eEF-2K (Homo sapiens, UniProt O00418)
T32 construct: purchased Millipore, Inc. (KinaseProfiler service)
Procedure, shortened: as §1

p38beta = target: T33, p38beta (Homo sapiens, UniProt Q15759)
T33 construct: purchased Millipore, Inc. (KinaseProfiler service)
Procedure, shortened: as §1

p38delta = target: T34, p38delta (Homo sapiens, UniProt O15264)
T34 construct: purchased Millipore, Inc. (KinaseProfiler service)
Procedure, shortened: as §1

Avg POC (AMPK (A1/B1/G1)): 114.5% of control | Avg POC (ARK5): 106% of control | Avg POC (Bmx): 122% of control | Avg POC (CAMK1d): 105% of control | Avg POC (CAMK4): 101.5% of control | Avg POC (CDK5/p25): 110.5% of control | Avg POC (CK1delta): 111.5% of control | Avg POC (DAPK2): 99% of control | Avg POC (DCAMKL2): 142% of control | Avg POC (DDR2): 101.5% of control | Avg POC (ErbB4): 97% of control | Avg POC (FGFR3): 103.5% of control | Avg POC (FGFR4): 102.5% of control | Avg POC (Flt3): 99% of control | Avg POC (GRK6): 101% of control | Avg POC (HIPK3): 82% of control | Avg POC (IKKbeta): 96% of control | Avg POC (JNK1alpha1): 106.5% of control | Avg POC (LKB1): 114.5% of control | Avg POC (MKK6): 121% of control | Avg POC (MSSK1): 94% of control | Avg POC (Met): 109% of control | Avg POC (NEK2): 112% of control | Avg POC (NEK3): 129% of control | Avg POC (NEK6): 121.5% of control | Avg POC (PASK): 103% of control | Avg POC (PTK5): 107.5% of control | Avg POC (ROCK-I): 103.5% of control | Avg POC (SGK1): 125% of control | Avg POC (TAO3): 105.5% of control | Avg POC (TEC Activated): 94% of control | Avg POC (eEF-2K): 116.5% of control | Avg POC (p38beta): 115% of control | Avg POC (p38delta): 108.5% of control
Compound: COCCN1C[C@@H](NC(=O)Nc2sc(C(C)C)nc2-c2ccccc2)[C@H](c2ccccc2)C1 [Example 48, 1-(2-isopropyl-4-phenylthiazol-5-yl)-3-((3S,4R)-1-(2-methoxyethyl)-4-phenylpyrrolidin-3-yl)urea]
